As a reminder, the IC50 is the point on the concentration scale where inhibition reaches its midpoint.

These results are taken from publication PMC12323867 (RSC Medicinal Chemistry, 2025).

Read-outs that look alike come from different tables or passages of the source.

In assay [1] the test system is LSD1. Conditions: cited from earlier work.
For assay [2], the target named is T1, LSD1-HDAC1-CoREST complex (Homo sapiens, UniProt O60341).
T1 construct: full length native LSD1 (UniProt ID: O60341); made in house; host or cells: HEK 293F cells (co-transfection, pcDNA3 vectors)
Kind of assay: LSD1 HRP-coupled demethylase assay, SP2509/SP2577 analogues. In kind it is biochemical. Particulars: LSD1 enzymatic activity, complex 50 nM, HRP assay; read-out: LSD1-HDAC1-CoREST IC50. The protocol: The analogues synthesised were then tested for their ability to inhibit LSD1 using purified LSD1-HDAC1-CoREST complex (Fig. 2B). We used an established fluorescent read out horseradish peroxidase (HRP) assay to monitor LSD1 enzymatic activity in the CoREST complex[8] (see ESI ^† for full details).
2. Supplementary Information: Biology
2.1. LSD-HDAC1-CoREST expression and purification
Lysis Buffer (Buffer A) Wash Buffer (Buffer B)
• 50 mM Tris/Cl pH 7.5 • 50 mM Tris/Cl pH 7.5
• 50 mM Potassium Acetate • 50 mM Potassium Acetate […]
Cleavage Buffer (Buffer C) Gel Filtration Buffer (Buffer D)
• 50 mM Tris/Cl pH 7.5 Filtered at vacuum.
• 50 mM Potassium Acetate • 50 mM Tris/Cl pH 7.5
• 5 % v/v Glycerol • 50 mM Potassium Acetate
• 0.5 mM tris(2- • 0.5 mM TCEP carboxyethyl)phosphine (TCEP)
The CoREST ternary complex was comprised of full length native LSD1 (UniProt ID: O60341), full length HDAC1 (UniProt ID: Q13547) and N-terminally truncated RCOR1 (86-485aa) (UniProt ID:
Q9UKL0). Protein constructs were cloned into pcDNA3 vector. The RCOR1 constructs contained an N-terminal (His)10(Flag)3 tag followed by a Tev protease cleavage site. The constructs for ternary complex were co-transfected into suspension-grow HEK 293F cells (Thermofisher Scientific) with polyethylenimine (PEI) (Sigma) and harvested after 48 hours. This section of the procedure was carried out as described previously in literature.11,12
Cell pellets from 1.2 L culture were defrosted, and buffer A (30 mL) was added. The solution was sonicated (Soniprep 150) in an beaker of ice using a 9 mm probe at 10 ampules; operated with 10 […]
2.2. SP2509/SP2577 analogues LSD1 HRP-coupled demethylase assay protocol The commercial reagents for the assay were HRP and Amplex® Ultrared, which are available to purchase from ThermoFisher (31490) and Invitrogen (10737474), respectively. HRP was made up to 8 mg/mL stock solution in 1xPBS buffer, divided into 10 µL aliquots, snap-frozen in liquid nitrogen and stored at -80 °C. Amplex® Ultrared was made up to 10 mM solution in DMSO, divided into 20 µL aliquots and wrapped in foil, away from light and stored at -20 °C. For each assay experiment, CoREST complex was diluted to 500 nM in assay buffer (20 mM HEPES pH 7.5 and 50 mM NaCl).
HRP was defrosted by diluting each aliquot in 90 µL 1xPBS solution, making a 0.8 mg/mL solution.
Amplex® Ultrared was made up to 200 µM in assay buffer. HRP and Amplex® Ultrared were pre-mixed before addition to the plate. H3K4Me2 substrate (4 mM in deionised water) was diluted to 300 µM in assay buffer. All stocks were stored on ice during assay preparation.
The assay was carried out using a ‘black well’ 96 well plate (Corning no. 3915) in a reaction volume of 100 μL. The final concentrations in the assay were as follows: 50 nM CoREST complex, 10 μM Amplex® UltraRed, 0.04 mg/mL HRP and 15 μM H3K4Me2 peptide substrate. The final DMSO concentration in each well was 1.1 %. Three wells of each experiments were designated ‘background controls’ and contained 85 μL assay buffer, premixed Amplex® UltraRed and HRP (10 µL) and H3K4Me peptide substrate (300 μM, 5 µL).
A stock solution of inhibitor (1 -5 mM in DMSO) was subjected to an inhibitor dilution series, in Eppendorf tubes, in 100 % DMSO. Each new inhibitor stock (4 μL) was diluted in assay buffer (1 in 75) within a new Eppendorf set with assay buffer (20 mM HEPES pH 7.5 and 50 m M NaCl), ensuring the percentage of DMSO was consistent throughout the series. To each well of interest, Inhibitor in assay buffer (75 μL) was added, and CoREST complex (500 nM, 10 µL) was added thereafter. The plate was placed on a rocker and pre -incubated for 30 mins. To each well, premixed Amplex® UltraRed and HRP (10 µL) was added before H3K4Me 2 peptide substrate in assay buffer solution (300 μM, 5 µL) was added to the wall of the plate. The plate was covered in foil and spun down for one minute before being placed in the plate reader. The final percentage concentration of DMSO in […]

The next assay relates to H3K4me2 levels in cells. Details: method as in PMID 38742921. Conditions: cited from earlier work.
The subject of assay [3] is LSD1. Set-up: method as in PMID 38742921. Conditions: cited from earlier work.

On to `C/C(=N\NC(=O)c1cccc(S(=O)(=O)N2CCN(C)CC2)c1)c1cc(Cl)ccc1O` [SP2577], for which the IC50 was 1330 nM with LSD1 [1] (read-out: LSD1 IC50), 127 nM in the assay on LSD1 [1] (read-out: LSD1 mean IC50) and 306 nM in assay [2]. In the assay on H3K4me2 levels in cells, the “H3K4me2 levels in cells” value is “failed to increase H3K4me2 levels”. For the same compound, the “ability to increase H3K4me2 on peptides and nucleosomes” value with LSD1 [3] is given as “no effect”.
